From patent publication US10792300B2, “Dendritic cell immune receptor activator, method for activating dendritic cell immune receptor, osteoclast formation inhibitor, method for inhibiting osteoclast formation, dendritic cell differentiation/proliferation inhibitor, method for inhibiting dendritic cell differentiation/proliferation, …” (TOKYO UNIVERSITY OF SCIENCE FOUNDATION, priority 2014, dated 2020)

T1: DCIR-Fc (Mus musculus, UniProt Q9QZ15)
T1 construct: covering the extracellular domain (EC) from 70 to 238 at the amino acid level; made in house; host or cells: HEK293T cells
T1 sequence (Q9QZ15 70-238): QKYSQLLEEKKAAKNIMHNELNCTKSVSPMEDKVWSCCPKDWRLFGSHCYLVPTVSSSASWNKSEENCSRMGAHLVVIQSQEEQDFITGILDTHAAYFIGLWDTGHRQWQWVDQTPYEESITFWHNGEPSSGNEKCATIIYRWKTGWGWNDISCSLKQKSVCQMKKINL

B1: IFN-γ: recombinant murine IFN-γ (PeproTech) (protein, UniProt P01580 23-155, looked up)
Interferon gamma: HGTVIESLESLNNYFNSSGIDVEEKSLFLDIWRNWQKDGDMKILQSQIISFYLRLFEVLKDNQAISNNISVIESHLITTFFSNSKAKKDAFMSIAKFEVNNPQVQRQAFNELIRVVHQLLPESSLRKRKRSRC

Assays:
[1] = tested on: Flt3L-induced dendritic cells (DCs); assay: Pro-inflammatory cytokine production by LPS-activated Flt3L-induced dendritic cells (ELISA); type: cell-based, mouse; settings: 1 μg/ml NA2, 24 hours, versus without NA2
Procedure: Flt3L-induced dendritic cells (DCs) were prepared by the following process. Bone marrow cells were isolated from femurs of wild-type mice. Red blood cells were destroyed in a hemolysis buffer (consisting of 140 mM NH4Cl and 17 mM Tris-HCl, pH 7.2) for 10 minutes on ice. The cells were seeded at 1 million cells per well in 24-well plates in the presence of 100 ng/ml of recombinant human Flt3L in a medium containing 10% FBS, antibiotic mixtures, essential amino acids and 2-mercaptoethanol. At day 4, 100 ng/ml of recombinant human Flt3L (Milteny) was added in each well and further cultured for additional 4 days. At day 8, the cells were harvested and re-seeded at 500,000 cells per well in 96-well plates.
The DCs thus obtained were activated with agonistic reagents (LPS) with or without 1 μg/ml of a NA2 for 24 hours. The supernatants were collected and the amounts of pro-inflammatory cytokines (IL-6 and p40) were determined by ELISA. As a result, the amount of pro-inflammatory cytokines were smaller when the DCs were stimulated by LPS in the presence of a NA2 than without the same (FIG. 50). In FIG. 50, the left-side two bars represent the amounts of pro-inflammatory cytokines without LPS stimulation, and the right-side two bars represent the amounts of pro-inflammatory cytokines with LPS stimulation, where the black bars represent the cases in the presence of a NA2.

DCIR-Fc [2] = assay: Glycan microarray with evanescent-field fluorescence-assisted detection: binding of DCIR-Fc to glycan probes; parameters: species or system murine; settings: for Ca2+ and CRD dependency of DCIR-Fc binding: with or without EDTA, CRD mutants; for binding of mutant DCIR-Fc (CRD mutants) to the glycan: glycan microarray
Text: (§1) Murine DCIR cDNA, covering the extracellular domain (EC) from 70 to 238 at the amino acid level, was subcloned into pFUSE-hIgG2-Fc2 vector (Invitrogen) at Bgl II site. cDNA coding the extracellular domain was generated with a primer set; sense 5′-[…]-3′ (sequence No. 11) and anti-sense 5′-[…]-3′ (sequence No. 12). Site-directed mutations of the CRD domain, in which glutamic acid and serine were replaced to alanine, were established by KOD-Plus-Mutagenesis Kit (TOYOBO). The following primer set was used for the mutagenesis: E197A sense 5′-[…]-3′(sequence No. 13), anti-sense 5′-[…]-3′(sequence No. 14); S199A sense 5′-[…]-3′(sequence No. 15), anti-sense 5′-[…]-3′ (sequence No. 16); E197A/S199A sense 5′-[…]-3′ (sequence No. 17), anti-sense 5′-[…]-3′(sequence No. 18).
(§2) The plasmids were transferred into HEK293T cells by Lipofectamine LTX (Invitrogen), and the cells were incubated in Opti-MEM (Invitrogen) for 15 days and the medium was changed every 3 days. The Fc-chimeric proteins were purified from collected supernatant by affinity chromatography on Protein A-Sepharose (GE Healthcare UK)
(§3) The glycan-protein interaction was detected in a glycan microarray with an evanescent-field fluorescence-assisted detection system. Briefly, glycan probes, including glycoproteins and glycoside-polyacrylamide (PAA), were immobilized on microarray-grade epoxy-activated glass slides (Schott AG) in triplicate spots using a noncontact microarray printing robot, MicroSys 4000 (Genomic Solutions). The glass slides were incubated at 25° C. for 3 hours and washed with a reaction buffer consisting of 25 mM Tris HCl (pH 7.4) containing 0.8% NaCl, 1% (v/v) Triton-X, 1 mM MnCl2, and 1 mM CaCl2 to remove […], followed by blocking in TBS (25 mM Tris-HCl (pH 7.4) with 0.8% NaCl and 1% BSA) at 20° C. for 1 hour. A protein complex of DCIR-Fc, mutant DCIR-Fc, or Fc with Cy3-labelled anti-human Fc antibodies was formed in a reaction buffer at RT by 20 minutes kept in the dark.
(§4) The protein complex was applied to a glass slide at 100 μl per chamber, and was incubated at 20° C. for 3 hours. Without washing, the binding was detected with an evanescent-field activated fluorescence scanner, SC-Profiler (GP Bioscience), and the data was analyzed by the Array Pro analyzer Ver. 4.5 (Media Cybernetics, Inc.) Subtracted raw intensity from background intensity is net intensity, which is presented as the average±s.d. of triplicate spots.

DCIR-Fc [3] = biological target: T1, DCIR-Fc; assay: as above; parameters: species or system murine; settings: glycan microarray, DCIR-Fc
Text: as §1, §2, §3, §4

wild-type BMMs [4] = assay: Western blotting of M-CSF- and RANKL-mediated signals, wild-type BMMs; type: cell-based, mouse; settings: wild-type BMMs pre-treated with NA2
Procedure: (§5) For western blotting of M-CSF- and RANKL-mediated signals, BMMs were re-plated in a 12-well plate at 250,000 cells per well in the presence of 5 ng/ml of M-CSF. 24 hours after the culture, the BMMs were left in a serum-free medium without M-CSF for 6 hours before stimulation. The cells were activated with 20 ng/ml of M-CSF or 100 ng/ml of RANKL for predetermined periods. […]
(§6) Wild-type and Dcir−/− BMMs were induced to differentiate osteoclasts in the presence of M-CSF and RANKL. […] The number of osteoclasts was determined by TRAP staining. […] Cell lysates were analyzed by western blotting to detect the phosphorylation levels of signal components.

Dcir−/− BMMs = assay: Western blotting of M-CSF- and RANKL-mediated signals, Dcir−/− BMMs; type: cell-based, mouse; settings: FIG. 49: Dcir−/− BMMs pre-treated with NA2 1 μg/ml for 6 hours
Procedure: as §5, §6

wild-type BMMs [5] = assay: Osteoclast formation by TRAP staining, wild-type BMMs with M-CSF and RANKL; type: cell-based, mouse
Procedure: To form M-CSF-dependent bone marrow-derived macrophages, BM cells were isolated by flushing the bone marrow cavity of femurs with α-minimal essential medium (α-MEM) (Gibco, trade name, Life Technologies), supplemented with penicillin (100 units/ml), streptomycin (100 μg/ml) and 10% heat-inactivated fetal bovine serum. Red blood cells were destroyed in a hemolysis buffer (consisting of 140 mM NH4Cl and 17 mM Tris-HCl, pH 7.2) for 10 minutes on ice, and the treated cells were pre-incubated in a 100 mm dish for 1 hour. The non-adherent cells (hematopoietic cells) were harvested and seeded at 50,000 cells per well in 96-well plates in the presence of 20 ng/ml of recombinant human M-CSF (R&D Systems) for 2 days. The cells proliferated in response to M-CSF were defined as BMMs. […]
Adherent cells were fixed in 10% formalin for 3 minutes, followed by further fixation in a fixative buffer consisting of 50% ethanol and 50% acetone for 1 minute. […] TRAP-positive cells with more than 3 or 10 nuclei were counted as multinucleated osteoclasts.
Wild-type and Dcir−/− BMMs were induced to differentiate osteoclasts in the presence of M-CSF and RANKL. […] The number of osteoclasts was determined by TRAP staining. […] Cell lysates were analyzed by western blotting to detect the phosphorylation levels of signal components. […]

[6] = tested on: primary murine osteoblasts; assay: Effect of IFN-γ on osteoblast formation (alizarin red staining, osteogenic gene expression); type: cell-based; settings: exogenous addition, dose-dependent
Procedure: Calvarial cells were prepared by sequential digestion followed by a standard method. Briefly, calvavria from 1 to 2-day old neonates were surgically isolated and adherent mesenchymal tissues were trimmed. The neonatal calvaria underwent a first digestion with a degrading solution containing 0.1% collagenase (Wako Pure Chemical Industries) and 0.1% dispase (Roche Diagnostics Japan) for 10 minutes at 37° C. with agitation. The solution was discarded to remove debris, and the remaining calvaria were further digested by the same degrading solution for 1 hour at 37° C. The cells isolated from the serial digestions were suspended in an a-MEM containing 10% FCS, penicillin (100 units/ml) and streptomycin (100 μg/ml), and plated at the concentration of 200,000 cells/well in 12-well plates. Two days after the culture, the cells were incubated in an osteogenic medium (α-MEM supplemented with 10% FBS, 50 μg/ml ascorbic acid (Sigma-Aldrich), 10 mM β-glycerophosphate (Calbiochem) and antibiotics) for 14 days or 21 days, with the medium replaced every 3 days for the entire duration.
Murine osteoblasts were cultured and differentiated according to the protocol as mentioned above. […]
The mineralization formation of osteoblastic cells was detected by the von Kossa method and staining with alizarin red S (sodium alizarin sulphonate). […]

Molecule	amount of pro-inflammatory cytokine IL-6 [1]	amount of pro-inflammatory cytokine p40 [1]	Ca2+ and CRD dependency of DCIR-Fc binding (DCIR-Fc [2])	binding of DCIR-Fc to the glycan (DCIR-Fc [3])	Akt phosphorylation in response to M-CSF and RANKL (wild-type BMMs [4])	MAPKs and IκBα upon M-CSF and RANKL stimuli (Dcir−/− BMMs)	osteoclast formation in wild-type BMMs (wild-type BMMs [5])	binding of mutant DCIR-Fc (CRD mutants) to the glycan (DCIR-Fc [2])	alizarin red staining (ability of osteoblasts to mineralize) [6]	expression of osteogenic genes ([6]; day 14 culture)
asialo-biantennary N-glycan [NA2]	smaller	smaller	Ca^2+ and CRD were required	bound strongly	decrease	no effect	significant decrease	–	–	–
asialo-transferrin: glycoprotein probe on the glycan microarray; transferrin without sialic acid	–	–	Ca^2+-dependent	bound	–	–	–	no binding	–	–
heparin	–	–	Ca^2+-dependent	bound	–	–	–	remained bound	–	–
B1	–	–	–	–	–	–	–	–	augmented	augmented
